Experimental data taken from patent US20250122502A1, “Bifunctional Molecules and Methods of Using Thereof” (FLAGSHIP PIONEERING, INC., priority 2021, published 2025).

Test system: MYC expression in HEK293T cells
Assay: MYC expression by qPCR after RNAiMax transfection
Type: cell-based, human
Conditions: 100 nM, 24 hours
Protocol: HEK293T cells were seeded at 30 k cells/well in a 96 well tissue culture vessel day before transfection. The next day cells were transfected with 400, 200, 100, 50 nM of PVT1 ASO1-JQ1 with Lipofectamine RNAiMax (ThermoFisher Cat #13778150). […] Transfected cells were allowed to recover and were harvested after 24 hours. MYC expression was measured by RNA level using qPCR analysis after transfection with each of the bi-functional molecule or control molecules. Cell samples for qPCR analysis were prepared by Cells to Ct 1 Step TaqMan Kit (ThermoFisher A25602) following manufacturer's recommendations. qPCR assays were performed using Cells to Ct qPCR master mix, gene specific TaqMan probe (ThermoFisher), and Cells to Ct cell lysate. Relative levels of MYC were normalized to β-actin as a stably expressed control. MYC TaqMan probe: […] ACTB TaqMan probe: […] During qPCR amplification, FAM fluorescence intensity for each target gene was recorded by QuantStudio7 qPCR instrument (ThermoFisher Scientific) as a measurement of the amount of double-stranded DNA produced during each PCR cycle. Ct values for each gene in each sample were computed by the instrument software based on the amplification curves, and used to determine relative expression values for target and β-actin in each sample.

| Substance | MYC expression change (in words) |
| --- | --- |
| PVT1-Scr1: partially scrambled PVT1 ASO1 (SEQ ID NO: 63) conjugated to JQ1 (antisense TGAAGTGGAATTCCAGTTG; listed as DNA, chemistry not fully specified) | less impact |
| PVT1-Scr4: partially scrambled PVT1 ASO1 (SEQ ID NO: 66) conjugated to JQ1 (antisense GTAAGTGGAATTCCATTGG; listed as DNA, chemistry not fully specified) | less impact |
